Assays:
[1] = target: human vasopressin V1b receptor (Homo sapiens (Human), UniProt P47901); assay: Vasopressin V1b receptor binding assay; conditions: membranes from CHO-K1 cells, displacement of 3H-AVP
Procedure: The test substances were dissolved in a concentration of 5 mM in 100% DMSO and further diluted to 5×10^−4 M to 5×10^−9 M. These serial DMSO predilutions were diluted 1:10 with assay buffer. The substance concentration was further diluted 1:5 in the assay mixture resulting in 2% DMSO in the mixture. All dilutions were performed in a Biomek NX automation workstation (Beckman)
The membrane pellet was again homogenized and centrifuged as described and subsequently taken up in 50 mM Tris-HCl, pH 7.4, homogenized and stored in aliquots frozen in liquid nitrogen at −190° C.
(§1) The incubation buffer was: 50 mM Tris, 10 mM MgCl2, 0.1% BSA, pH 7.4.
All determinations were carried out as duplicate determinations. […] The liquid scintillation measurement took place in a Microbeta TriLux 12 (Wallac). Analysis:
(§2) The binding parameters were calculated by nonlinear regression in SAS.

[2] = target: human vasopressin V1a receptor (Homo sapiens (Human), UniProt P37288); assay: Vasopressin V1a receptor binding assay; conditions: selectivity quotient, human V1a vs human V1b receptor
Procedure: The test substances were dissolved in a concentration of 5 mM M in DMSO. Further dilution of these DMSO solutions took place as described for V1b.
The membrane pellet was again homogenized in a High-Pressure-Homogenizer, Polytec 50K at 1500 PSI (Heinemann, Germany) and subsequently taken up in 50 mM Tris-HCl, pH 7.4, homogenized and stored in aliquots frozen in liquid nitrogen at −190° C.
as §1
Duplicate determinations were carried out.
After incubation (60 minutes at room temperature), the samples were processed as described for V1b.
as §2

human vasopressin V1b receptor, sequence (P47901 whole entry): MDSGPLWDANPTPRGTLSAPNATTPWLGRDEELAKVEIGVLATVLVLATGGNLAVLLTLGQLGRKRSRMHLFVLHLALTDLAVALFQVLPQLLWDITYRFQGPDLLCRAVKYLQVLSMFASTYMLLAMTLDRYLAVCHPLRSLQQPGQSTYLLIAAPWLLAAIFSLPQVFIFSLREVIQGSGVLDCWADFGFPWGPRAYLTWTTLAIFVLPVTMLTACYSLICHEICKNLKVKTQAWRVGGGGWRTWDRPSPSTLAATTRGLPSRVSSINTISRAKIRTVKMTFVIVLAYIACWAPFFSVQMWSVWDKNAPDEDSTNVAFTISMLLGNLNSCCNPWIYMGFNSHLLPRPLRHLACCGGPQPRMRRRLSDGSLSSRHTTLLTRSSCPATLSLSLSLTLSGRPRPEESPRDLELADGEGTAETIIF
human vasopressin V1a receptor, sequence (P37288 whole entry): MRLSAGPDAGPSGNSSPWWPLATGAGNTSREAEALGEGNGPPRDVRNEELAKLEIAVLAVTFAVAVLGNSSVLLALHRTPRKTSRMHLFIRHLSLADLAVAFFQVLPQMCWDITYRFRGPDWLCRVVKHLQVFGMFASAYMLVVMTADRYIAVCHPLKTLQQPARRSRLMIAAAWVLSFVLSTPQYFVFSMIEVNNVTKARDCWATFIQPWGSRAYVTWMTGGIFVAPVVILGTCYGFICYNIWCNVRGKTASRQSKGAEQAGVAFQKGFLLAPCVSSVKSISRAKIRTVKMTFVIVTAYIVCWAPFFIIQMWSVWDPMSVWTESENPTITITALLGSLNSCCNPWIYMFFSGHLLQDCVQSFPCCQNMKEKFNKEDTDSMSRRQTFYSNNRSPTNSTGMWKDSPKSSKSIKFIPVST

SMILES	Ki [1]	Ki(h-V1a)/ Ki(h-V1b) [2]
CCOc1ccc(OC)cc1C1(N2CC3(CN(C4CCN(C)CC4)C3)C2)C(=O)N(S(=O)(=O)c2ccc(OC)cn2)c2ccc(C#N)cc21 (single isomer, unassigned; (-)) [Example 1B, (−)-3-(2-ethoxy-5-methoxy-phenyl)-1-[(5-methoxy-2-pyridyl)sulfonyl]-3-[2-(1-methyl-4-piperidyl)-2,6-diazaspiro[3.3]heptan-6-yl]-2-oxo-indoline-5-carbonitrile]	10 to 100 nM	+++ (>75)
CCOc1ccc(OC)cc1C1(N2CC3(CN(c4ccnc(C)c4)C3)C2)C(=O)N(S(=O)(=O)c2ccc(OC)cc2OC)c2ccc(C#N)cc21 (single isomer, unassigned; (+)) [Example 24, (+)-1-(2,4-dimethoxyphenyl)sulfonyl-3-(2-ethoxy-5-methoxy-phenyl)-3-[2-(2-methyl-4-pyridyl)-2,6-diazaspiro[3.3]heptan-6-yl]-2-oxo-indoline-5-carbonitrile]	10 to 100 nM	+++ (>75)
CCOc1ccc(OC)cc1C1(N2CC3(CN(C4CCN(C)CC4)C3)C2)C(=O)N(S(=O)(=O)c2ccc(OC)cn2)c2ccc(C#N)cc21 (single isomer, unassigned; (+)) [Example 1A, (+)-3-(2-ethoxy-5-methoxy-phenyl)-1-[(5-methoxy-2-pyridyl)sulfonyl]-3-[2-(1-methyl-4-piperidyl)-2,6-diazaspiro[3.3]heptan-6-yl]-2-oxo-indoline-5-carbonitrile]	< 1 nM	+++ (>75)
CCOc1ccc(OC)cc1C1(N2CC3(CC(N4CCN(C)CC4)C3)C2)C(=O)N(S(=O)(=O)c2ccc(OC)cn2)c2ccc(C#N)cc21 (racemic) [Example 17, (±)-3-(2-ethoxy-5-methoxy-phenyl)-1-[(5-methoxy-2-pyridyl)sulfonyl]-3-[2-(4-methylpiperazin-1-yl)-6-azaspiro[3.3]heptan-6-yl]-2-oxo-indoline-5-carbonitrile]	< 1 nM	+++ (>75)
CCOc1ncccc1C1(N2CC3(CN(C4CCN(C)CC4)C3)C2)C(=O)N(S(=O)(=O)c2ccc(OC)cc2)c2ccc(C#N)cc21 (racemic) [Example 12, (±)-3-(2-ethoxy-3-pyridyl)-1-(4-methoxyphenyl)sulfonyl-3-[2-(1-methyl-4-piperidyl)-2,6-diazaspiro[3.3]heptan-6-yl]-2-oxo-indoline-5-carbonitrile]	10 to 100 nM	
CCOc1ccc(OC)cc1C1(N2CC3(CN(C4CCN(C)CC4)C3)C2)C(=O)N(S(=O)(=O)c2ccc(OC)cn2)c2cc(C#N)ccc21 (racemic) [Example 29, (±)-3-(2-ethoxy-5-methoxy-phenyl)-1-[(5-methoxy-2-pyridyl)sulfonyl]-3-[2-(1-methyl-4-piperidyl)-2,6-diazaspiro[3.3]heptan-6-yl]-2-oxo-indoline-6-carbonitrile]	1 to 10 nM	
CCOc1ncccc1C1(N2CC3(CN(C4CCN(C)CC4)C3)C2)C(=O)N(S(=O)(=O)c2ccc(OC)cn2)c2ccc(C#N)cc21 (racemic) [Example 9, (±)-3-(2-ethoxy-3-pyridyl)-1-[(5-methoxy-2-pyridyl)sulfonyl]-3-[2-(1-methyl-4-piperidyl)-2,6-diazaspiro[3.3]heptan-6-yl]-2-oxo-indoline-5-carbonitrile]	1 to 10 nM	+++ (>75)
COc1ccc(S(=O)(=O)N2C(=O)C(c3ccccc3OC)(N3CC4(CN(C5CCN(C6COC6)CC5)C4)C3)c3cc(C#N)ccc32)nc1 (single isomer, unassigned; (+)) [Example 23, (+)-3-(2-methoxyphenyl)-1-[(5-methoxy-2-pyridyl)sulfonyl]-3-[2-[1-(oxetan-3-yl)-4-piperidyl]-2,6-diazaspiro[3.3]heptan-6-yl]-2-oxo-indoline-5-carbonitrile]	1 to 10 nM	+ (10-<25)
CCOc1ccc(OC)cc1C1(N2CC3(CN(C4CCN(C)CC4)C3)C2)C(=O)N(S(=O)(=O)c2ccc(OC)cc2)c2ccc(C#N)cc21 (single isomer, unassigned; (-)) [Example 6, (−)-3-(2-ethoxy-5-methoxy-phenyl)-1-(4-methoxyphenyl)sulfonyl-3-[2-(1-methyl-4-piperidyl)-2,6-diazaspiro[3.3]heptan-6-yl]-2-oxo-indoline-5-carbonitrile]	10 to 100 nM	
CCOc1ccc(OC)cc1[C@]1(N2CC3(CN(C4CCN(C)CC4)C3)C2)C(=O)N(S(=O)(=O)c2cccc(OC)n2)c2ccc(C#N)cc21 [Example 32, (3S)-3-(2-ethoxy-5-methoxy-phenyl)-1-[(6-methoxy-2-pyridyl)sulfonyl]-3-[2-(1-methyl-4-piperidyl)-2,6-diazaspiro[3.3]heptan-6-yl]-2-oxo-indoline-5-carbonitrile]	10 to 100 nM	

Other lines, results leading:

Ki [1]	Ki(h-V1a)/ Ki(h-V1b) [2]	SMILES
1 to 10 nM	+ (10-<25)	COc1ccc(S(=O)(=O)N2C(=O)C(c3cccnc3C(C)(F)F)(N3CC4(CN(C5CCN(C)CC5)C4)C3)c3cc(C#N)ccc32)nc1 (racemic) [Example 30, (±)-3-[2-(1,1-difluoroethyl)-3-pyridyl]-1-[(5-methoxy-2-pyridyl)sulfonyl]-3-[2-(1-methyl-4-piperidyl)-2,6-diazaspiro[3.3]heptan-6-yl]-2-oxo-indoline-5-carbonitrile]
1 to 10 nM	+++ (>75)	CCOc1ncccc1C1(N2CC3(CC(N4CCN(C)CC4)C3)C2)C(=O)N(S(=O)(=O)c2ccc(OC)cn2)c2ccc(C#N)cc21 (racemic) [Example 27, (±)-3-(2-ethoxy-3-pyridyl)-1-[(5-methoxy-2-pyridyl)sulfonyl]-3-[2-(4-methylpiperazin-1-yl)-6-azaspiro[3.3]heptan-6-yl]-2-oxo-indoline-5-carbonitrile]
< 1 nM	+++ (>75)	CCOc1ccc(OC)cc1C1(N2CC3(CN(c4ccnc(C)c4)C3)C2)C(=O)N(S(=O)(=O)c2ccc(OC)cn2)c2ccc(C#N)cc21 (single isomer, unassigned; (+)) [Example 25, (+)-3-(2-ethoxy-5-methoxy-phenyl)-1-[(5-methoxy-2-pyridyl)sulfonyl]-3-[2-(2-methyl-4-pyridyl)-2,6-diazaspiro[3.3]heptan-6-yl]-2-oxo-indoline-5-carbonitrile]
1 to 10 nM	+++ (>75)	CCOc1ccc(OC)cc1C1(N2CC3(CN(C4CCN(C)CC4)C3)C2)C(=O)N(S(=O)(=O)c2ccc(OC)cn2)c2ccc(C#N)cc21 (racemic) [Example 1, (±)-3-(2-ethoxy-5-methoxy-phenyl)-1-[(5-methoxy-2-pyridyl)sulfonyl]-3-[2-(1-methyl-4-piperidyl)-2,6-diazaspiro[3.3]heptan-6-yl]-2-oxo-indoline-5-carbonitrile]
1 to 10 nM	+ (10-<25)	COc1ccc(S(=O)(=O)N2C(=O)C(c3cccnc3OC)(N3CC4(CN(C5CCN(C)CC5)C4)C3)c3cc(C#N)ccc32)nc1 (racemic) [Example 22, (±)-3-(2-methoxy-3-pyridyl)-1-[(5-methoxy-2-pyridyl)sulfonyl]-3-[2-(1-methyl-4-piperidyl)-2,6-diazaspiro[3.3]heptan-6-yl]-2-oxo-indoline-5-carbonitrile]

Reference: patent publication US9688678B2, “Oxindole compounds carrying a nitrogen-bound spiro substituent and use thereof for treating vasopressin-related diseases” (AbbVie Deutschland GmbH & Co. KG, priority 2014, dated 2017)
